Source: patent publication US10639251B2, “Method for inhibiting or masking fishy odours” (Symrise AG, priority 2015, dated 2020)
Several values for one entry are separate records, joined by “and”; a condition that tells them apart may be missing. Identical values can stand only once. Entries after “also recorded” stand apart in the source; their conditions may differ. Like-named read-outs stand apart in the source and are kept apart here.

What was measured:
[1] = target: T1, hTAAR5 (Homo sapiens, UniProt O14804); experiment: Cre-luciferase reporter gene assay, hTAAR5-mediated responses to TMA in transfected HANA3A cells; type: cell-based; conditions: for IC50: read-out: half maximal inhibitory concentration (IC50)
T1 construct: expressed in transfected cells; host or cells: HANA3A cells
T1 sequence (O14804 1-337): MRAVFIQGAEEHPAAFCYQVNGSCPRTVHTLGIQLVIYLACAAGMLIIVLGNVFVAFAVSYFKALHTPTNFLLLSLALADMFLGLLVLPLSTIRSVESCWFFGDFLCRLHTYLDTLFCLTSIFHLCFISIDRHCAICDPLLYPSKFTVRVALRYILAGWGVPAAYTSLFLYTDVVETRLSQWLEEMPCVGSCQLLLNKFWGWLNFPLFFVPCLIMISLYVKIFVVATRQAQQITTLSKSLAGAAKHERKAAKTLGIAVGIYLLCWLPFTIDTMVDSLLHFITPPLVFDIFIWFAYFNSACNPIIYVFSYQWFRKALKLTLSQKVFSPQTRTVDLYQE
Description: In order to identify suitable antagonist for TMA the protocol of Zhuang and Matsunami for measuring receptor activity with the Dual-Glo Luciferase Assay System (Promega) was adapted [see Nat. Protoc. 3(9), p. 1402-1413 (2008)]. HANA3A cells were maintained under standard conditions in DMEM supplemented with 10% FBS and 100 units/ml penicillin and streptomycin at 37° C. Cells (approximately 15,000 cells/well) were plated on poly-D-lysine-coated 96-well plates (NUNC) and transfected after 24 h with the FuGENE® HD (Promega) transfection reagent according to the manufacturer's protocol. In a 96-well plate, we placed 18 μl transfection reagent, 1-5 μg receptor plasmid, 2 μg pGL4-luciferase reporter, 1 μg pRL-TK-Renilla reporter, 0.5 μg G-protein αolf, 1 μg receptor transport protein (RTP1S) and 1 μg M3 muscarinic acetylcholine receptor (for hOR51E1) to ensure cell surface expression. Cells were stimulated 24 h after transfection for 4 h at 37° C. with test substances diluted in CD 293 medium (1×) (Life Technologies) with 2 mM L-glutamine (Life Technologies) added. After stimulation with test substances, recombinant hTAAR5 activation elevated cAMP and the subsequent expression of the cAMP-dependent reporter gene construct Cre-luciferase. Expression rates of Cre-luciferase were monitored by luminescent enzymatic reactivity. Thus, luminescence signals correlate with receptor activation. The Renilla luciferase reporter driven by a constitutively active TK-promoter (pRL-TK-Renilla) served as an internal control to determine cell viability and transfection efficiency. Firefly luciferase activity to the Renilla luciferase signal was normalized for all wells. The ratios of antagonistic stimulation were normalized to the ratios of agonist stimulation. Furthermore, mock-transfected cells were stimulated to exclude unspecific responses to the tested substances.
To identify blocker substances for hTAAR5-mediated responses to TMA, the Cre-luciferase reporter gene assay was used. Human TAAR5-transfected HANA3A cells were stimulated with a mix of the agonist TMA (300 μM) and 100 μM of a potential blocker substance (FIG. 1).
For more detailed information concerning the type of antagonism (competitive vs. non-competitive) in the following experiments, the pharmacological profile of Timberol® was characterized. To test the concentration dependency of the Timberol® block, a concentration-inhibition curve (FIG. 2a) was measured. The blocking effect was increased with increasing concentrations of Timberol® and decreased with increasing concentrations of the agonist TMA. The latter was reflected by a significant concentration-inhibition curve shift.

[2] = system: MOR42-3; experiment: Cre-luciferase assay, MOR42-3-mediated responses to azelaic acid; type: cell-based, murine; conditions: Timberol 30 μM; agonist below and above EC50
Description: (§1) In order to identify suitable antagonist for TMA the protocol of Zhuang and Matsunami for measuring receptor activity with the Dual-Glo Luciferase Assay System (Promega) was adapted [see Nat. Protoc. 3(9), p. 1402-1413 (2008)]. HANA3A cells were maintained under standard conditions in DMEM supplemented with 10% FBS and 100 units/ml penicillin and streptomycin at 37° C. Cells (approximately 15,000 cells/well) were plated on poly-D-lysine-coated 96-well plates (NUNC) and transfected after 24 h with the FuGENE® HD (Promega) transfection reagent according to the manufacturer's protocol. In a 96-well plate, we placed 18 μl transfection reagent, 1-5 μg receptor plasmid, 2 μg pGL4-luciferase reporter, 1 μg pRL-TK-Renilla reporter, 0.5 μg G-protein αolf, 1 μg receptor transport protein (RTP1S) and 1 μg M3 muscarinic acetylcholine receptor (for hOR51E1) to ensure cell surface expression. […] Expression rates of Cre-luciferase were monitored by luminescent enzymatic reactivity. Thus, luminescence signals correlate with receptor activation. […]
(§2) Another experiment was directed to figure out whether the Timberol® block is exclusively mediated by hTAAR5. […] Then the impact of Timberol® on MOR42-3- and hOR51E1-mediated responses to the respective agonists was tested with concentrations below and above the calculated EC50 values. […]

[3] = target: T2, hOR51E1 (Homo sapiens, UniProt Q8TCB6); experiment: Cre-luciferase assay, hOR51E1-mediated responses to nonanoic acid; type: cell-based; design: expressed in transfected cells; host or cells: HANA3A cells; conditions: Timberol 30 μM; agonist below and above EC50
T2 sequence (Q8TCB6 1-318): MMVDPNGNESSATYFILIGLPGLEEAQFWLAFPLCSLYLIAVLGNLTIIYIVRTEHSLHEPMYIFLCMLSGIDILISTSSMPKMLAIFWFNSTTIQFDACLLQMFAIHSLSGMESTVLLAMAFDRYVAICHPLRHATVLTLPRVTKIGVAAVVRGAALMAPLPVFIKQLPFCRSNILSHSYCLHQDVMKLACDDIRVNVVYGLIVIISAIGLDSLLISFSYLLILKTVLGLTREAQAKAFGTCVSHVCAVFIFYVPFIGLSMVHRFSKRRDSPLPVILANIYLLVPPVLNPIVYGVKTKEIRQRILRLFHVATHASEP
Description: as §1, §2

Compound: CCCC(O)CCC1C(C)CCCC1(C)C (centres unmarked) [Timberol®, Norlimbanol]
- block of average hTAAR5 responses ([1]; 30 μM Timberol): at least 50%
- block of hTAAR5 response ([1]; 30 μM Timberol, 30 μM TMA): ~78%
- block of hTAAR5 response ([1]; 30 μM Timberol, 100 μM TMA): ~56%
- blocking effect ([1]; 100 μM Timberol, 30 μM TMA): ~96% and 96%±1.7%
- blocking effect ([1]; 100 μM Timberol, 100 μM TMA): 86%±3.6%
- inhibition of hTAAR5 responses to TMA ([1]; 100 μM Timberol, 300 μM TMA): 72%±6%
- IC50 ([1]; TMA 30 μM): 16.6 µM
- IC50 ([1]; TMA 100 μM): 27.8 µM
- reduction / inhibition of hTAAR5-mediated TMA responses ([1]; TMA 300 μM, putative antagonist 100 μM): nearly completely block
- blocking effect on MOR42-3-mediated responses to azelaic acid [2]: no any significant impact; also recorded: No significant blocking effects
- blocking effect on hOR51E1-mediated responses to nonanoic acid [3]: no any significant impact; also recorded: No significant blocking effects
